Measured values reported in patent US20110178118A1, “PALONOSETRON FOR THE TREATMENT OF CHEMOTHERAPY INDUCED EMESES” (priority 2002, published 2011).

System: cisplatin-induced emesis
Test: Duration of action in cisplatin-treated dogs
Type: in vivo
Conditions: 0.04 mg/kg IV
Description: Mean numbers of episodes were computed and the statistical significance of differences between treatment groups were determined with Dunnett's t test. Solutions of palonosetron and comparator drugs (ondansetron and granisetron) were prepared in distilled water. Vehicle control groups received distilled water.

CN1C2CCCC1CC(NC(=O)c1nn(C)c3ccccc13)C2 (centres unmarked) [Granisetron]
antiemetic effect in duration of action experiments (1 to 12 hours before cisplatin): without antiemetic effect
Emetic Episodes (mean ± SD) (1 hr pre-cisplatin 3.0 mg/kg IV): 12.33 ± 4.32
Emetic Episodes (mean ± SD) (2 hr pre-cisplatin 3.0 mg/kg IV): 9.67 ± 4.46
Emetic Episodes (mean ± SD) (4 hr pre-cisplatin 3.0 mg/kg IV): 13.83 ± 7.25
Emetic Episodes (mean ± SD) (6 hr pre-cisplatin 3.0 mg/kg IV): 21.33 ± 9.54
Emetic Episodes (mean ± SD) (8 hr pre-cisplatin 3.0 mg/kg IV): 14.67 ± 8.69
Emetic Episodes (mean ± SD) (10 hr pre-cisplatin 3.0 mg/kg IV): 23.00 ± 5.87
Emetic Episodes (mean ± SD) (12 hr pre-cisplatin 3.0 mg/kg IV): 15.67 ± 6.28
